Experimental data: patent publication US7001600B1, “Identification of TRP-2 as a human tumor antigen recognized by cytotoxic T lymphocytes” (The United States of America as represented by the …, priority 1996, dated 2006)
Entries after “also recorded” stand apart in the source; their conditions may differ.

Legend:
Assay type in all cases: cell-based, human
CTL clone 4 (TRP-2) [1] = test: GM-CSF secretion assay: CTL clone 4 co-incubated with peptide-pulsed target cells; conditions: for CTL clone 4 GM-CSF release: 586EBV cells pulsed with peptide at 0.5-g/ml for 90 min, in pg/mL
Source text: (§1) The T cell clones were generated by limiting dilution methods (at 1 cells/well) from the TIL586 cell line, and used allogenic PBL (1×10^3 cells/well) as feeder cells in RPMI1640 containing 10% human AB sera and 500 IU IL-2. After 12 days, T cell clones were then expanded in AIM-V medium containing 6000 IU/ml IL-2. To obtain an optimal expansion, we used the OKT3 expansion method described by S. Riddell (Walter et al. (1995)). Briefly, on day 0, 5×10^4 5×10^5 T cells were cocultured with HLA-A31 PBL (500:1, PBL: T cell ratio) and 586EBV B cells (100: 1, EBV: T cell ratio) in 25 ml RPMI 1640 containing 11% human sera, 30 ng/ml OKT3 antibody and antibiotics. On day 1, IL-2 was added at final concentration of 180 IU/ml. The media were changed with fresh media containing 11% human sera, IL-2 180 IU/ml on day 5. The media were then changed every three days. On day 12–14, T cells were harvested, counted and cryopreserved. TIL586 were isolated from the tumor specimen of a patient with metastatic melanoma and grown in medium containing IL-2 (6000 IU/ml) (Chiron) for 32–60 days as previously described [Topalian et al. 1988). TIL586 were predominantly CD8+ T cells. DNA transfection and GM-CSF assays were performed as previously described (Wang et al. 1995). Briefly, 200 ng of DNA encoding antigens and 50 ng of the HLA-A31 DNA were mixed with 2 μl of lipofectamine in […] of DMEM for 15–45 min. The DNA/lipofectamine mixture was then added to the COS-7 (5×104) cells and incubated overnight. The following day, cells were washed twice with DMEM medium. TIL586 was added at a concentration of 1×10^5 cells/well in AIM-V medium containing 120 IU/ml of IL-2. For T cell clones, only 1–2×10^4 cells/well were added. After 18–24 h incubation, 100 μl of supernatant was collected and GM-CSF was measured in a standard ELISA assay (R+D^− Systems, Minneapolis, Minn.). For testing peptides recognition, 586EBV or T2 cells were incubated with peptides at 37° C. for 90 min, and then washed three times with AIM-V medium containing 120 IU/ml of IL-2. T cells were added and incubated for an additional 18–24 h, 100 μl of supernatant was collected for GM-CSF assay.

CTL clone 1 (TRP-1) [2] = test: GM-CSF secretion assay: CTL clone 1 (TIL586-C1) co-incubated with peptide-pulsed target cells
Source text: as §1

CTL clone 4 = test: Cytotoxicity assay (Calcein AM): lysis of peptide-pulsed target cells by CTL clone 4; conditions: for lysis of peptide-pulsed 586EBV B cells by CTL clone 4 (in words): different E:T ratios, peptide pulsed 90 min
Experimental: Cytolysis was determined by use of Calcein AM (Molecular Probes, Eugene, Oreg.). Briefly, T2 or 586EBV B cells were pulsed with peptides in RPMI1640/5% FCS for 90 min. Tumor cells and the peptide pulsed EBV B cells were labelled with Calcein AM (15 μl of 1 mg/ml Calcein AM for every 1×10^6 cells) for 30 min at 37. C. Following incubation, cells were washed three times with AIM V/120 IU IL-2. 1×10^3 target cells were mixed with T cells at various E:T ratio. After 4 h incubation at 37° C., 5 μl of bovine hemoglobin quench solution containing ethidium bromide was added. The plate was read by Lambda scan. The percentage of lysis was calculated from the following equation: [1−(A−B)/(C−B)]×100 where A is the reading of non-lysed cells in the presence of T cells, B is background signal value and C is the maximum signal value from target cells.

CTL clone 4 (TRP-2) [3] = test: GM-CSF secretion assay: CTL clone 4 co-incubated with peptide-pulsed target cells; conditions: 1510EBV (HLA-A31+) cells pulsed with peptide at 1-g/ml for 90 min
CTL clone 1 (TRP-1) [4] = test: GM-CSF secretion assay: CTL clone 1 (TIL586-C1) co-incubated with peptide-pulsed target cells; conditions: 1510EBV (HLA-A31+) cells pulsed with peptide at 1-g/ml for 90 min
[5] = 586EBV (HLA-A31+) cells pulsed with peptide at 1-g/ml for 90 min, T cells alone subtracted
[6] = peptide pulsed on 586EBV B cells
[7] = T2 (HLA-A31 negative) cells pulsed with peptide at 1-g/ml for 90 min
[8] = titration, peptide pulsed on 586EBV B cells
[9] = 586EBV B cells pulsed with peptide, E:T ratio 40:1, 4 h

Sequence: LLAPGRPYR
- CTL clone 4 GM-CSF release (CTL clone 4 (TRP-2) [1]; T cells alone subtracted): <50

Sequence: GPAFVTWHR [TRP213–221, synthetic TRP-2 peptide]
- GSM-CSF release CTL clone 4 (TRP-2) (CTL clone 4 (TRP-2) [1]; [5]): < 50 pg/mL
- GSM-CSF release CTL clone 1 (TRP-1) (CTL clone 1 (TRP-1) [2]; [5]): < 50 pg/mL

Sequence: LSGPGRPYR
- CTL clone 4 GM-CSF release (CTL clone 4 (TRP-2) [1]; T cells alone subtracted): 3300

Sequence: LVGPGRPYR
- CTL clone 4 GM-CSF release (CTL clone 4 (TRP-2) [1]; T cells alone subtracted): 2100

Sequence: LFGPGRPYR
- CTL clone 4 GM-CSF release (CTL clone 4 (TRP-2) [1]; T cells alone subtracted): <50

Sequence: LLGPGKPYR
- CTL clone 4 GM-CSF release (CTL clone 4 (TRP-2) [1]; T cells alone subtracted): 321

Sequence: LLGPGIPYR
- CTL clone 4 GM-CSF release (CTL clone 4 (TRP-2) [1]; T cells alone subtracted): <50

Sequence: LIGPGRPYR
- CTL clone 4 GM-CSF release (CTL clone 4 (TRP-2) [1]; T cells alone subtracted): 2545

Sequence: LLLPGRPYR
- CTL clone 4 GM-CSF release (CTL clone 4 (TRP-2) [1]; T cells alone subtracted): <50

Sequence: LLGPGRPYRA
- CTL clone 4 GM-CSF release (CTL clone 4 (TRP-2) [1]; T cells alone subtracted): 545

Sequence: TLLGPGRPYR [10mer extended byone amino acid at the N-terminus of TRP 197-205]
- CTL clone 4 GM-CSF release (CTL clone 4 (TRP-2) [1]; T cells alone subtracted): 2100
- reactivity (GM-CSF release, CTL clone 4) relative to the parental 9mer LLGPGRPYR (CTL clone 4 (TRP-2) [1]; [6]): about 60%

Sequence: LLGPGRPYK
- CTL clone 4 GM-CSF release (CTL clone 4 (TRP-2) [1]; T cells alone subtracted): 2000

Sequence: FVWLHYYSVR [TRP185–194, synthetic TRP-2 peptide]
- GSM-CSF release CTL clone 4 (TRP-2) (CTL clone 4 (TRP-2) [1]; [5]): < 50 pg/mL
- GSM-CSF release CTL clone 1 (TRP-1) (CTL clone 1 (TRP-1) [2]; [5]): < 50 pg/mL

Sequence: LLGPGFPYR
- CTL clone 4 GM-CSF release (CTL clone 4 (TRP-2) [1]; T cells alone subtracted): 738

Sequence: LLGPGAPYR
- CTL clone 4 GM-CSF release (CTL clone 4 (TRP-2) [1]; T cells alone subtracted): <50

Sequence: RDTLLGPGR [TRP194–202, synthetic TRP-2 peptide]
- GSM-CSF release CTL clone 4 (TRP-2) (CTL clone 4 (TRP-2) [1]; [5]): < 50 pg/mL
- GSM-CSF release CTL clone 1 (TRP-1) (CTL clone 1 (TRP-1) [2]; [5]): < 50 pg/mL

Sequence: MSLQRQFLR [ORF3P, control peptide derived from the alternative open reading frame of the TRP-1 gene, reference compound]
- GSM-CSF release CTL clone 4 (TRP-2) (CTL clone 4 (TRP-2) [1]; [5]): < 50 pg/mL
- GSM-CSF release CTL clone 4 (TRP-2) (CTL clone 4 (TRP-2) [1]; [7]): < 50 pg/mL
- GSM-CSF release CTL clone 1 (TRP-1) (CTL clone 1 (TRP-1) [2]; [5]): > 8000 pg/mL
- GSM-CSF release CTL clone 1 (TRP-1) (CTL clone 1 (TRP-1) [2]; [7]): < 50 pg/mL
- lysis of peptide-pulsed 586EBV B cells by CTL clone 4 (in words) (CTL clone 4): failed to lyse
- GSM-CSF release CTL clone 4 (TRP-2) (CTL clone 4 (TRP-2) [3]): < 50 pg/mL
- GSM-CSF release CTL clone 1 (TRP-1) (CTL clone 1 (TRP-1) [4]): > 6000 pg/mL

Sequence: LLFPGRPYR
- CTL clone 4 GM-CSF release (CTL clone 4 (TRP-2) [1]; T cells alone subtracted): <50

Sequence: ALGPGRPYR
- CTL clone 4 GM-CSF release (CTL clone 4 (TRP-2) [1]; T cells alone subtracted): <50

Sequence: RLGPGRPYR
- CTL clone 4 GM-CSF release (CTL clone 4 (TRP-2) [1]; T cells alone subtracted): <50

Sequence: LLGPGRPYH
- CTL clone 4 GM-CSF release (CTL clone 4 (TRP-2) [1]; T cells alone subtracted): <50

Sequence: VWLHYYSVR [TRP186–194, synthetic TRP-2 peptide]
- GSM-CSF release CTL clone 4 (TRP-2) (CTL clone 4 (TRP-2) [1]; [5]): < 50 pg/mL
- GSM-CSF release CTL clone 1 (TRP-1) (CTL clone 1 (TRP-1) [2]; [5]): < 50 pg/mL

Sequence: LLGPGVPYR
- CTL clone 4 GM-CSF release (CTL clone 4 (TRP-2) [1]; T cells alone subtracted): <50

Sequence: LLGPGRPYR [TRP197–205, 9mer antigenic peptide of TRP-2, amino acids 197–205]
- GSM-CSF release CTL clone 4 (TRP-2) (CTL clone 4 (TRP-2) [1]; [5]): > 4000 pg/mL
- CTL clone 4 GM-CSF release (CTL clone 4 (TRP-2) [1]; T cells alone subtracted): 3450
- GSM-CSF release CTL clone 4 (TRP-2) (CTL clone 4 (TRP-2) [1]; [7]): < 50 pg/mL
- recognition by CTL clone 4 / stimulation of cytokine release (in words) (CTL clone 4 (TRP-2) [1]; [6]): strongly recognized; also recorded: most efficiently stimulated cytokine release from T cells
- peptide concentration at which stimulation of GM-CSF release reached a plateau (CTL clone 4 (TRP-2) [1]; [8]): 500 nM
- peptide concentration sufficient to stimulate GM-CSF release from T cell clone 4 (CTL clone 4 (TRP-2) [1]; [8]): 1 nM
- GSM-CSF release CTL clone 1 (TRP-1) (CTL clone 1 (TRP-1) [2]; [5]): < 50 pg/mL
- GSM-CSF release CTL clone 1 (TRP-1) (CTL clone 1 (TRP-1) [2]; [7]): < 50 pg/mL
- peptide concentration at which lysis of target cells by CTL clone 4 was detected (CTL clone 4; [9]): 1 nM
- peptide concentration of maximum lysis (CTL clone 4; [9]): 100 nM
- lysis of peptide-pulsed 586EBV B cells by CTL clone 4 (in words) (CTL clone 4): capable of lysing
- GSM-CSF release CTL clone 4 (TRP-2) (CTL clone 4 (TRP-2) [3]): > 4000 pg/mL
- GSM-CSF release CTL clone 1 (TRP-1) (CTL clone 1 (TRP-1) [4]): < 50 pg/mL

Sequence: KLGPGRPYR
- CTL clone 4 GM-CSF release (CTL clone 4 (TRP-2) [1]; T cells alone subtracted): 420

Sequence: LAGPGRPYR
- CTL clone 4 GM-CSF release (CTL clone 4 (TRP-2) [1]; T cells alone subtracted): 550

Sequence: LGPGRPYR
- CTL clone 4 GM-CSF release (CTL clone 4 (TRP-2) [1]; T cells alone subtracted): <50
